Test results: US20070149535A1, “Protein kinase inhibitors” (ONCALIS AG, priority 2004, published 2007)
Blank lines part the entries; values can stand above or below the molecule they belong to.

Assays:
Assay in all cases: Yeast growth assay, specificity profiling
Type in all cases: cell-based
Set-up in all cases: key: “−” indicates no growth restoration i.e. no activity against the particular kinase; “+”, “++”, and “+++” indicate activity detected by restoration of growth, classified into three categories of potency; “+”, “++”, and “+++” indicate activity detected by restoration of growth, classified into three categories of potency; “+”, “++”, and “+++” indicate activity detected by restoration of growth, classified into three categories of potency
Conditions in all cases: 7 concentrations between 0.2 and 100 μM
EphA2 = target: T1, EphA2 (Homo sapiens, UniProt P29317)
T1 construct: expressed in transfected cells; host or cells: yeast
T1 sequence (P29317 24-976): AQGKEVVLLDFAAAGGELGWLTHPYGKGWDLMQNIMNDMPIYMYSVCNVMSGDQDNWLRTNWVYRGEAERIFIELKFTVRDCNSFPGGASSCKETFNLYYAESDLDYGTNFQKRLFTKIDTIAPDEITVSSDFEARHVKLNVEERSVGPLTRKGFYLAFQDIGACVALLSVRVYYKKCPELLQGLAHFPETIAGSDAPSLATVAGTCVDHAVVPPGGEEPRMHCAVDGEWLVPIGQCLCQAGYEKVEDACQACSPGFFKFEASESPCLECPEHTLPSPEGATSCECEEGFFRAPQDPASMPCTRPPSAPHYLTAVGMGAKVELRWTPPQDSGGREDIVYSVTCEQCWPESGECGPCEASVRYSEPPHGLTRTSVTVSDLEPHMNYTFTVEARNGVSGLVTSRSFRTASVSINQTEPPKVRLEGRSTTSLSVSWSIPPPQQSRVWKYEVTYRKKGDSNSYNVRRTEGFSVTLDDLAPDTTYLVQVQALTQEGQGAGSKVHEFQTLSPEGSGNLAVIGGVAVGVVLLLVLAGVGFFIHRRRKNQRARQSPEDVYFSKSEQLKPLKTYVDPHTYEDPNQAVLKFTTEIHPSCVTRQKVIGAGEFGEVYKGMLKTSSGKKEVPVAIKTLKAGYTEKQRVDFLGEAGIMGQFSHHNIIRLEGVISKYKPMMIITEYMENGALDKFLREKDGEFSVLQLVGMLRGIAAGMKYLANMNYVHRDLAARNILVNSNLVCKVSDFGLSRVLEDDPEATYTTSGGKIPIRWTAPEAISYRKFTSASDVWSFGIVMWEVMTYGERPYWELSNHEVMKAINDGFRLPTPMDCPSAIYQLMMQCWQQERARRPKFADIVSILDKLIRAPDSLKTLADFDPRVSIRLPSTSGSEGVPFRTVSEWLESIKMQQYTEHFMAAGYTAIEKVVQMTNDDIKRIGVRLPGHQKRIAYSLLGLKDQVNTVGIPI
Description: (§1) Specificity Profiling: Yeast Growth Assay
(§2) The yeast growth assay was performed as described in “Method for the identification and/or validation of receptor tyrosine kinase inhibitors” PCT/CH03/00694 (2004/10/24), section “Modes for Carrying out the Invention, Experiment 1 and Experiment 2.
(§3) Briefly, yeast cells carrying plasmids with the RTK of interest were grown in glucose containing medium (repressing expression). The cultures were diluted into galactose containing medium, which induces the expression of the kinase. Expression of the kinase inhibits growth of the yeast cells, which allows for positive selection of kinase inhibitors restoring growth of cells. Compounds were titrated at 7 concentrations between 0.2 and 100 μM.
(§4) Specificity profiling of compounds, using the yeast growth assay method described above. “−” indicates no growth restoration i.e. no activity against the particular kinase, “+”, “++”, and “+++” indicate activity detected by restoration of growth, classified into three categories of potency according to the maximal level of growth restoration reached and the concentration at which the maximal growth restoration is reached.

FGFR-4 = target: T2, FGFR-4 (Homo sapiens, UniProt P22455)
T2 construct: expressed in transfected cells; host or cells: yeast
T2 sequence (P22455 22-802): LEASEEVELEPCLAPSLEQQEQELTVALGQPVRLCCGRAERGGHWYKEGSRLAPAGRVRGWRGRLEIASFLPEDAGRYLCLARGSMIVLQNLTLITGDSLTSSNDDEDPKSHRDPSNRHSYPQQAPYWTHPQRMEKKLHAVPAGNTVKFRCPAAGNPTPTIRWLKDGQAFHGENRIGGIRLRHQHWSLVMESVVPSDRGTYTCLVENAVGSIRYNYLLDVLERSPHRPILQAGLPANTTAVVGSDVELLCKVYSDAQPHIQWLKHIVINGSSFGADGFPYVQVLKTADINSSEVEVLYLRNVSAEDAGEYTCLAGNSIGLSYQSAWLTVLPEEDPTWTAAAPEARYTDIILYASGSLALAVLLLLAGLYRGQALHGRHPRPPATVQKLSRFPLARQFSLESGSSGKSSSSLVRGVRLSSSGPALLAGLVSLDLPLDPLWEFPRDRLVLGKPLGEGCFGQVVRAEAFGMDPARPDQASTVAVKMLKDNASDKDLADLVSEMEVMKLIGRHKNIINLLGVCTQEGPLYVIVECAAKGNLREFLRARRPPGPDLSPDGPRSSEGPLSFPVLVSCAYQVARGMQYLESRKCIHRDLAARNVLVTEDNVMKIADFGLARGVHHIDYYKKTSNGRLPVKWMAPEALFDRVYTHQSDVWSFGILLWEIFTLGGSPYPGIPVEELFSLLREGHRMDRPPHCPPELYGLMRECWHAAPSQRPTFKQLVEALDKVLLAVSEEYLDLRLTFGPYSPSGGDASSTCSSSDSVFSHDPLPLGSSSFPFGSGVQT
Description: as §1, §2, §3, §4

KIT = target: T3, KIT (Homo sapiens, UniProt P10721)
T3 construct: expressed in transfected cells; host or cells: yeast
T3 sequence (P10721 26-976): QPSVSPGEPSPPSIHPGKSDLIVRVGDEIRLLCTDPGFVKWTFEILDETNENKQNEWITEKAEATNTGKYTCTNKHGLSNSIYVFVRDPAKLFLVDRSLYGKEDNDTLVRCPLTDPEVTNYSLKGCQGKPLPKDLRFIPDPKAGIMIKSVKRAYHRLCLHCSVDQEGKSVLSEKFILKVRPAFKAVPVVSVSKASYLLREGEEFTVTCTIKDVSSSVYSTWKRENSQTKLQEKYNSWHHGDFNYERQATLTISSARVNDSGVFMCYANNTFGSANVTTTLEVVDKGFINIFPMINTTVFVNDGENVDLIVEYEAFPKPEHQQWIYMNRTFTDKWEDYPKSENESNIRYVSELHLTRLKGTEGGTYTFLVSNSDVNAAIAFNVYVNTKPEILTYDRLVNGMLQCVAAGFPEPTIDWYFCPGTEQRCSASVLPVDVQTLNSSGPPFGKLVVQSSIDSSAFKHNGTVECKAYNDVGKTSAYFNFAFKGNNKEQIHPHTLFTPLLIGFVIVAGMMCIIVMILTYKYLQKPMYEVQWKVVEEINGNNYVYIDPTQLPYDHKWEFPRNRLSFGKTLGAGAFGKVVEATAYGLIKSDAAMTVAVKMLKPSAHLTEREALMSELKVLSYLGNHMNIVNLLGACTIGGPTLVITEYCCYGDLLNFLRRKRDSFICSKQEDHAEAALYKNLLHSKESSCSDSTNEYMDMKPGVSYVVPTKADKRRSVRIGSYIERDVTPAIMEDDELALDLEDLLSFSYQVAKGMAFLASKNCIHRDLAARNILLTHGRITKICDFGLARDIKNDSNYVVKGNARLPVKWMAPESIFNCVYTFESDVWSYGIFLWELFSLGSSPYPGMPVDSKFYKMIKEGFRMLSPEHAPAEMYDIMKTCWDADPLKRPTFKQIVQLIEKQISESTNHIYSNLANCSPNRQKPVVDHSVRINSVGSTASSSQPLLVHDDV
Description: as §1, §2, §3, §4

VEGFR1 = target: T4, VEGFR1 (Homo sapiens, UniProt P17948)
T4 construct: expressed in transfected cells; host or cells: yeast
Description: as §1, §2, §3, §4

EphB2 = target: T5, EphB2 (Homo sapiens, UniProt P29323)
T5 construct: expressed in transfected cells; host or cells: yeast
T5 sequence (P29323 19-1055): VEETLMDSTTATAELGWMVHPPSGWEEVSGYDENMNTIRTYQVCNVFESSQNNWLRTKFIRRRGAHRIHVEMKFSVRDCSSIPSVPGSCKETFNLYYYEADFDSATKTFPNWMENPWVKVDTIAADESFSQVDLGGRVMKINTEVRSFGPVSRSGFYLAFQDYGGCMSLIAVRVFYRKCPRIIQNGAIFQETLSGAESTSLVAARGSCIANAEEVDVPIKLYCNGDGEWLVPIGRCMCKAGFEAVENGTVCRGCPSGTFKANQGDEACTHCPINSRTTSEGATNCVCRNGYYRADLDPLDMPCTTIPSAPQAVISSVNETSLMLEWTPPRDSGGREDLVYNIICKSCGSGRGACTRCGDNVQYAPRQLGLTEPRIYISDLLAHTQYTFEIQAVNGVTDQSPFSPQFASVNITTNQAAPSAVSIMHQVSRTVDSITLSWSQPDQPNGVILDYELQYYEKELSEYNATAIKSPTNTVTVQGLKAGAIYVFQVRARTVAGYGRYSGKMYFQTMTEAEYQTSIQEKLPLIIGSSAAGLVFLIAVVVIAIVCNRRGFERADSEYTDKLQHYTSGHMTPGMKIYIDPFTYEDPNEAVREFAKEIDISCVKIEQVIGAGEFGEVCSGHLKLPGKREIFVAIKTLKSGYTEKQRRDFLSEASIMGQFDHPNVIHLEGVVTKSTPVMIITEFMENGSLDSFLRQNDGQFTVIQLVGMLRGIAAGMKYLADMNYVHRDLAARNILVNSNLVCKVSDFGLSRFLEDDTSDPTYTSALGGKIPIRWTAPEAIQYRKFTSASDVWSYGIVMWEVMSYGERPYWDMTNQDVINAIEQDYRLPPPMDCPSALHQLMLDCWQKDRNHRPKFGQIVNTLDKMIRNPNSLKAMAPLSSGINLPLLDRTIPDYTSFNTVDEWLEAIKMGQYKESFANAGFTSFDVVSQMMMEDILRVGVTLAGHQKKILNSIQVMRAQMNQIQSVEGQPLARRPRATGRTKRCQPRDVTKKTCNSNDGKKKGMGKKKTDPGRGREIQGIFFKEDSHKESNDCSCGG
Description: as §1, §2, §3, §4

PDGFRb = target: T6, PDGFRb (Homo sapiens, UniProt P09619)
T6 construct: expressed in transfected cells; host or cells: yeast
T6 sequence (P09619 33-1106): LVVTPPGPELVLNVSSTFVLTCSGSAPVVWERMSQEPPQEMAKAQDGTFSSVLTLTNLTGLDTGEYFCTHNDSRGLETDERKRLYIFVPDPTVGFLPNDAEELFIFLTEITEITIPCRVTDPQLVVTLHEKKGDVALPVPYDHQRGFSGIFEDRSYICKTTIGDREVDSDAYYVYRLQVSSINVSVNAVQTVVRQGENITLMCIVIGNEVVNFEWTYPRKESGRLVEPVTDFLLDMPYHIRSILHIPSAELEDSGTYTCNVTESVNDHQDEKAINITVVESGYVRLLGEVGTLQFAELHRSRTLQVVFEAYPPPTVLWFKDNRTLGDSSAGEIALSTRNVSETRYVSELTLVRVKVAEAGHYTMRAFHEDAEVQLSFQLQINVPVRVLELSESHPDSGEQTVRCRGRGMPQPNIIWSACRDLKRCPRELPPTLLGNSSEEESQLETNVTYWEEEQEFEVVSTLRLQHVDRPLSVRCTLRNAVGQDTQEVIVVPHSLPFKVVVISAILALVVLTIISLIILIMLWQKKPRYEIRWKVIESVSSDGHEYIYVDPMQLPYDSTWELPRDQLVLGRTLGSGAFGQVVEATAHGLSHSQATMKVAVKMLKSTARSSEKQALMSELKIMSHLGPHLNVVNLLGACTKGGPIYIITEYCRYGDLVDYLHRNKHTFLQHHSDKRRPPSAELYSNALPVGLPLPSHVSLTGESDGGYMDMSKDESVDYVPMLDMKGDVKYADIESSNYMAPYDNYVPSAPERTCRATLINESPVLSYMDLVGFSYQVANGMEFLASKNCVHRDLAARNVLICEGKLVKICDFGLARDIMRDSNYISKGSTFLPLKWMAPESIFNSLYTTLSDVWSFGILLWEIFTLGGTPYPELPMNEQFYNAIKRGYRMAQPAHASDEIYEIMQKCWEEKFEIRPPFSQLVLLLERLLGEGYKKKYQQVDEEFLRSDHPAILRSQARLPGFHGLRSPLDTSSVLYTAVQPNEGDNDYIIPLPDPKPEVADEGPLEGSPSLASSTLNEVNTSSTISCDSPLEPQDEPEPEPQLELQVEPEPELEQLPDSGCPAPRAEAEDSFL
Description: as §1, §2, §3, §4

TEK = target: T7, TEK (Homo sapiens, UniProt Q02763)
T7 construct: expressed in transfected cells; host or cells: yeast
T7 sequence (Q02763 23-1124): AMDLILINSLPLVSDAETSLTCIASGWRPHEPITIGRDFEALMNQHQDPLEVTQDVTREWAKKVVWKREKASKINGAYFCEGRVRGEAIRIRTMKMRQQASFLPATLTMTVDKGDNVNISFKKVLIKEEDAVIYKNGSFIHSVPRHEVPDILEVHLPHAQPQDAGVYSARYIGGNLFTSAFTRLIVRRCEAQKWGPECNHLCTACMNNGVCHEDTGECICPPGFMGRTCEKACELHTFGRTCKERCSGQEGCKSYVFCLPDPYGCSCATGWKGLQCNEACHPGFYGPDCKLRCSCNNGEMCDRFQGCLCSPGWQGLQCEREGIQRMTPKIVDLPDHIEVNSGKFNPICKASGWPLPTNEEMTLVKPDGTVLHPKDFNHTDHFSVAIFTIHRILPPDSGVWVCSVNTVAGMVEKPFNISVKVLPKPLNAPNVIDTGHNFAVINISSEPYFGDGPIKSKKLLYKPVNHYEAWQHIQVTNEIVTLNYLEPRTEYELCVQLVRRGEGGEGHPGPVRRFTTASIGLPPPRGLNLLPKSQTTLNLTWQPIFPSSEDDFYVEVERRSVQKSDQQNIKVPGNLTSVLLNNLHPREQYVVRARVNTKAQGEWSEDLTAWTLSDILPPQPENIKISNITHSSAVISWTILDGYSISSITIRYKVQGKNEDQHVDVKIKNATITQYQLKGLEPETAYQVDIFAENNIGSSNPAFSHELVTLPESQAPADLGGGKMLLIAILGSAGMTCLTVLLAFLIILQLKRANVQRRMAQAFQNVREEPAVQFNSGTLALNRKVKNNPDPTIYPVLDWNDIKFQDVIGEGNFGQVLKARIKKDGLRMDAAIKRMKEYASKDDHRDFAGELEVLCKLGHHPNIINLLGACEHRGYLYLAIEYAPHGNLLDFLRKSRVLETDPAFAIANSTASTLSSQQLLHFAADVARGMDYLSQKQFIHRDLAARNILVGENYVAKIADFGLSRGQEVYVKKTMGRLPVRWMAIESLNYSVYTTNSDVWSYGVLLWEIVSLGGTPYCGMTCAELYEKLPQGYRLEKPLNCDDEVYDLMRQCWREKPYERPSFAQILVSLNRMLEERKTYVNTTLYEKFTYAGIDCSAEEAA
Description: as §1, §2, §3, §4

SMILES: Clc1ccc(Nc2c(-c3ccccc3)nc3cnccn23)cc1 [compound 16, (4-Chloro-phenyl)-(2-phenyl-imidazo[1,2-a]pyrazin-3-yl)-amine]
- EphA2 growth restoration (EphA2): −
- FGFR-4 growth restoration (FGFR-4): −
- KIT growth restoration (KIT): −
- VEGFR1 growth restoration (VEGFR1): −
- EphB2 growth restoration (EphB2): −
- PDGFRb growth restoration (PDGFRb): −
- TEK growth restoration (TEK): −

SMILES: c1ccc(Nc2c(-c3ccc(N4CCOCC4)cc3)nc3cnccn23)cc1 [compound 38, [2-(4-Morpholin-4-yl-phenyl)-imidazo[1,2-a]pyrazin-3-yl]-phenyl-amine]
- EphA2 growth restoration (EphA2): +
- VEGFR1 growth restoration (VEGFR1): +
- EphB2 growth restoration (EphB2): ++
- TEK growth restoration (TEK): −

SMILES: CC(=O)Nc1ccc(-c2nc3c(C)nccn3c2Nc2cccc(Cl)c2)cc1 [compound 33, N-{4-[3-(3-Chloro-phenylamino)-8-methyl-imidazo[1,2-a]pyrazin-2-yl]-phenyl}-acetamide]
- EphA2 growth restoration (EphA2): +
- VEGFR1 growth restoration (VEGFR1): −
- EphB2 growth restoration (EphB2): +++
- TEK growth restoration (TEK): −

SMILES: Fc1cccc(Nc2c(-c3ccccc3)nc3cnccn23)c1 [compound 26, (3-Fluoro-phenyl)-(2-phenyl-imidazo[1,2-a]pyrazin-3-yl)-amine]
- EphA2 growth restoration (EphA2): −
- VEGFR1 growth restoration (VEGFR1): −
- EphB2 growth restoration (EphB2): +
- TEK growth restoration (TEK): −

SMILES: CC(=O)Nc1ccc(-c2nc3cnccn3c2Nc2cccc(Cl)c2)cc1 [compound 8, N-{4-[3-(3-Chloro-phenylamino)-imidazo[1,2-a]pyrazin-2-yl]-phenyl}-acetamide]
- EphA2 growth restoration (EphA2): +
- VEGFR1 growth restoration (VEGFR1): −
- EphB2 growth restoration (EphB2): ++
- TEK growth restoration (TEK): −

SMILES: COc1cccc(-c2nc3c(C)nccn3c2Nc2cccc(C)c2)c1 [compound 42, [2-(3-Methoxy-phenyl)-8-methyl-imidazo[1,2-a]pyrazin-3-yl]-m-tolyl-amine]
- EphA2 growth restoration (EphA2): +
- VEGFR1 growth restoration (VEGFR1): −
- EphB2 growth restoration (EphB2): +++
- TEK growth restoration (TEK): −

SMILES: Nc1ccc(-c2nc3cnccn3c2Nc2cccc(Cl)c2)cc1 [compound 10, [2-(4-Amino-phenyl)-imidazo[1,2-a]pyrazin-3-yl]-(3-chloro-phenyl)-amine]
- EphA2 growth restoration (EphA2): ++
- VEGFR1 growth restoration (VEGFR1): −
- EphB2 growth restoration (EphB2): ++
- TEK growth restoration (TEK): −

SMILES: CC(C)c1nc2cnccn2c1Nc1cccc(Cl)c1 [compound 12, (3-Chloro-phenyl)-(2-isopropyl-imidazo[1,2-a]pyrazin-3-yl)-amine]
- EphA2 growth restoration (EphA2): +
- VEGFR1 growth restoration (VEGFR1): −
- EphB2 growth restoration (EphB2): +
- TEK growth restoration (TEK): −

Second part, the molecule after the results:

- EphA2 growth restoration (EphA2): −
- FGFR-4 growth restoration (FGFR-4): −
- KIT growth restoration (KIT): −
- VEGFR1 growth restoration (VEGFR1): −
- EphB2 growth restoration (EphB2): ++
- PDGFRb growth restoration (PDGFRb): −
- TEK growth restoration (TEK): −
SMILES: Cc1nccn2c(Nc3ccc(F)c(F)c3)c(-c3ccccc3)nc12 [compound 45, (3,4-Difluoro-phenyl)-(8-methyl-2-phenyl-imidazo[1,2-a]pyrazin-3-yl)-amine]

- EphA2 growth restoration (EphA2): +
- VEGFR1 growth restoration (VEGFR1): −
- EphB2 growth restoration (EphB2): +++
- TEK growth restoration (TEK): −
SMILES: COc1cccc(-c2nc3c(C)nccn3c2Nc2cccc(Cl)c2)c1 [compound 48, (3-Chloro-phenyl)-[2-(3-methoxy-phenyl)-8-methyl-imidazo[1,2-a]pyrazin-3-yl]-amine]

- EphA2 growth restoration (EphA2): −
- FGFR-4 growth restoration (FGFR-4): −
- KIT growth restoration (KIT): −
- VEGFR1 growth restoration (VEGFR1): −
- EphB2 growth restoration (EphB2): +++
- PDGFRb growth restoration (PDGFRb): −
- TEK growth restoration (TEK): −
SMILES: Cc1nccn2c(Nc3cccc(F)c3)c(-c3ccccc3)nc12 [compound 44, (3-Fluoro-phenyl)-(8-methyl-2-phenyl-imidazo[1,2-a]pyrazin-3-yl)-amine]

- EphA2 growth restoration (EphA2): −
- FGFR-4 growth restoration (FGFR-4): −
- KIT growth restoration (KIT): −
- VEGFR1 growth restoration (VEGFR1): −
- EphB2 growth restoration (EphB2): ++
- PDGFRb growth restoration (PDGFRb): −
- TEK growth restoration (TEK): −
SMILES: Cc1cccc(Nc2c(-c3ccccc3)nc3c(C)nccn23)c1 [compound 43, (8-Methyl-2-phenyl-imidazo[1,2-a]pyrazin-3-yl)-m-tolyl-amine]

- EphA2 growth restoration (EphA2): −
- VEGFR1 growth restoration (VEGFR1): −
- EphB2 growth restoration (EphB2): +
- TEK growth restoration (TEK): −
SMILES: Fc1ccc(Nc2c(-c3ccccc3)nc3cnccn23)cc1F [compound 30, (3,4-Difluoro-phenyl)-(2-phenyl-imidazo[1,2-a]pyrazin-3-yl)-amine]

- EphA2 growth restoration (EphA2): +
- FGFR-4 growth restoration (FGFR-4): −
- KIT growth restoration (KIT): −
- VEGFR1 growth restoration (VEGFR1): −
- EphB2 growth restoration (EphB2): +++
- PDGFRb growth restoration (PDGFRb): −
- TEK growth restoration (TEK): −
SMILES: Cc1nccn2c(Nc3ccccc3)c(-c3ccccc3)nc12 [compound 39, (8-Methyl-2-phenyl-imidazo[1,2-a]pyrazin-3-yl)-phenyl-amine]

- EphA2 growth restoration (EphA2): −
- VEGFR1 growth restoration (VEGFR1): −
- EphB2 growth restoration (EphB2): −
- TEK growth restoration (TEK): −
SMILES: CNc1nccn2c(Nc3cccc(Cl)c3)c(-c3ccccc3)nc12 [compound 20, N′3-(3-Chloro-phenyl)-N′8-methyl-2-phenyl-imidazo[1,2-a]pyrazine-3,8-diamine]
